Source: paper PMC4479448, “Delivery of Topically Applied Calpain Inhibitory Peptide to the Posterior Segment of the Rat Eye” (PLoS ONE, 2015)
Where a SMILES comes first, the peptide text is derived from it.

How the values were obtained:
[1] = Sandwich ELISA quantification of topically instilled peptide in retinal extract; assay type: in vivo, Sprague-Dawley rats; conditions: for roughly equivalent concentration of the peptide in the intracellular space: converted from ELISA value; for concentration of the Tat-μCL in the retina: 1 mM, 20 μl eye drops twice a day for 7 days, whole retina extract, sandwich ELISA, average ± SD, n = 6 eyes (6 rats)
Procedure: (§1) Every effort was taken to minimize suffering. […] Animals were randomly allocated into experimental or control group.
The amount of the peptide delivered to the retina was quantified by sandwich ELISA as per a previously reported method. In this procedure, we first added 50 μl of rabbit polyclonal anti-HIV1 tat antibody (1:2000, ab43014, Abcam) diluted with 0.05 M carbonate-bicarbonate buffer, pH 9.6, to 96-well immunoplates (Nunc, Roskilde, Denmark). After incubating the plates overnight at 4°C, the plates were washed three times with PBS-T, and then incubated with PBS-T containing 10% bovine serum albumin (BSA) at 37°C for 2 h. Subsequently, we then washed the plates with PBS and incubated the plates with 50 μl of retinal extract or standard peptide (100 amol, 1 fmol, 10 fmol, 100 fmol, 1 pmol, 10 pmol, 100 pmol and 1 nmol Tat-μCL) diluted with PBS-T containing 10% BSA at 37°C for 2 h. The retinal extract was obtained by sonication and gradual centrifugations at 600×g for 5 min, 4,500×g for 10 min, and 20,000×g for 20 min. The supernatant of the final centrifugation was used as the retinal extract. The protein concentration was measured by the Bradford’s assay with bovine serum albumin used as the standard. After washing the plate three times with PBS-T, the plates were incubated with 50 μl of mouse monoclonal anti-HIV1 tat antibody (1:1000, ab63957, Abcam) diluted with PBS-T containing 10% BSA at 37°C for 2 h. Subsequently, the plates were then washed three times with PBS-T and incubated with horse radish peroxidase (HRP)-conjugated rabbit anti-mouse IgG (1:1000) diluted with PBS-T containing 10% BSA at 37°C for 2 h. After incubation, the plates were washed three times with PBS-T and then once with distilled water. The reaction was performed by incubating the plates with 50 μl of citrate-phosphate buffer, pH 5.0, containing 0.04% o-phenylenediamine and 0.006% hydrogen peroxide. Color development was inhibited by the addition of 50 μl of 2.4 M sulfuric acid. Absorbance was determined at 492 nm.
All statistical analyses were conducted using the SPSS version 22 software program (IBM, Armonk, NY). A one-way ANOVA was used to statistically compare the results between multiple groups. And then, as a post hoc analysis, a Dunnett T3 test was used to determine significance between the two groups. In the present study, P < 0.05 was considered statistically significant. Experiments were performed in triplicate to confirm the reproducibility.

[2] = Immunohistochemical distribution of topically instilled peptide in and around the eye (anti-HIV1 tat antibody); assay type: in vivo, Sprague-Dawley rats; conditions: for distribution of topically instilled peptide (immunoreactivity): n = 3 eyes (3 rats)
Procedure: as §1
Distribution of the peptide was analyzed by immune-positive reactions observed in and around the rat eyes. Immunohistochemical experiments were performed in line with our previously reported method. Briefly, rats were euthanized after the final eye drop instillation by inhalation of carbon dioxide at 1, 3 and 6 h. Eyes were immediately enucleated after euthanasia. For the immunohistochemistry, eyes were fixed in 4% paraformaldehyde in phosphate-buffered saline (PBS), pH 7.4, for 20 min at room temperature. Eyes were then placed in the fixative overnight at 4°C. Specimens were cryoprotected for 4 h in 10% then 20% sucrose in PBS, and then frozen in OCT compound. […] The sections were rinsed in PBS and blocked with 1% skim milk in PBS containing 0.05% Tween (PBS-T) for 2 h at room temperature. Sections were incubated overnight at 4°C with the mouse monoclonal antibody raised against HIV1 tat (ab63957, 1:200, Abcam, Cambridge, UK) diluted in 1% skim milk in PBS-T as the primary antibody. Sections were then washed with PBS-T and incubated with tetramethylrhodamine isothiocyanate isomer R (TRITC)-conjugated rabbit anti-mouse IgG (R0270, 1:200, Dako, Glostrup, Denmark) overnight at 4°C. Sections were washed with PBS-T and nuclei were counterstained with 4’ 6-diamidino-2-phenylindole (DAPI). Immunofluorescent images were obtained by laser confocal microscopy (FV1000-D; Olympus, Tokyo, Japan).

[3] = 1 mM eye drops twice a day for 7 days, adult female SD rats
Procedure: We performed topical instillation (20 μl) of 1 mM Tat-μCL dissolved in a sterile saline solution (pH 7.4) twice a day (9 a.m. and 5 p.m.) for 7 days in both eyes of adult female SD rats (3-month-old, weighing 350–400g) without anesthesia. […] Topical application was performed in home cages using a micropipette tip with residual liquid around the eyelids wiped off by a cotton swab. Every effort was taken to minimize suffering. Before the rat eyes were enucleated, rats were euthanized with inhalation of carbon dioxide. […] At each time point, 6 rats were examined, with 3 out of the 6 right eyes used for the immunohistochemistry and all of the left eyes used for the biochemical analyses. As a control, 3 rats were topically administered sterile saline for bilaterally using the same methods described above. Animals were randomly allocated into experimental or control group. Every effort was taken to reduce the number of animal used.

[4] = test system: photoreceptors; conditions: topical instillation of 1 mM eye drops, rhodopsin P23H transgenic rats; cited from earlier work
Text: Every effort was taken to minimize suffering. Before the rat eyes ... || Calpains are members of the Ca^2+-activated cysteine proteinases and play important roles in various physiological and pathological pathways, such as regulating signal transductions, the cell cycle, cell adhesion, gene expression, and cell death.

[5] = rat, in vivo; cited from earlier work

Molecule | roughly equivalent concentration of the peptide in the intracellular space ([1]; 1 h after final eye drops) [µM] | concentration of the Tat-μCL in the retina ([1]; 1 h after final instillation) [pg/μg protein] | roughly equivalent concentration of the peptide in the intracellular space ([1]; 3 h after final eye drops) [µM] | concentration of the Tat-μCL in the retina ([1]; 3 h after final instillation) [pg/μg protein] | roughly equivalent concentration of the peptide in the intracellular space ([1]; 6 h after final eye drops) [µM] | concentration of the Tat-μCL in the retina ([1]; 6 h after final instillation) [pg/μg protein] | time for which sufficient concentration (> IC50) is maintained in the rat retina ([1]; after final application of 1 mM eye drops) | half-life of Tat-μCL in the rat retina ([1]; estimated from ELISA results (Fig 4), topical 1 mM eye drops) | time after final application of most prominent immunoreactivity ([2]; anterior segment tissues, examined at 1 and 3 h) [h] | distribution of topically instilled peptide (immunoreactivity) ([2]; anterior segment) | time after final instillation of most prevalent immunoreactivity ([2]; optic disc area, examined at 1, 3 and 6 h) [h] | distribution of topically instilled peptide (immunoreactivity) ([2]; optic disc area) | time after final application of most abundant immunoreactivity ([2]; posterior segment, examined at 1, 3 and 6 h) [h] | distribution of topically instilled peptide (immunoreactivity) ([2]; posterior segment) | adverse effects [3] | adverse effects [4] | time of peak in the retina after eye drop application [5] [h]
CC(C)C[C@H](NC(=O)[C@H](C)NC(=O)[C@H](CC(=O)O)NC(=O)[C@@H]1CCCN1C(=O)[C@H](CCC(N)=O)NC(=O)[C@@H]1CCCN1C(=O)[C@@H]1CCCN1C(=O)[C@H](CCCNC(=N)N)NC(=O)[C@H](CCCNC(=N)N)NC(=O)[C@H](CCCNC(=N)N)NC(=O)[C@H](CCC(N)=O)NC(=O)[C@H](CCCNC(=N)N)NC(=O)[C@H](CCCNC(=N)N)NC(=O)[C@H](CCCCN)NC(=O)[C@H](CCCCN)NC(=O)[C@H](CCCNC(=N)N)NC(=O)CN)C(=O)N[C@@H](CCCCN)C(=O)N[C@@H](CO)C(=O)N[C@@H](CCCNC(=N)N)C(=O)N[C@H](C(=O)N[C@@H](CC(C)C)C(=O)N[C@@H](CCCNC(=N)N)C(=O)O)[C@@H](C)O [Tat-μCL] (H-GRKKRRQRRRPPQPDALKSRTLR-OH) | ~4.48 | 15.3 | ~1.70 | 5.8 | ~0.29 | 1.0 | at least 6 h | approximately 2.6 h | 1 | diffusely distributed in the various tissues including the cornea, sclera, iris, ciliary body, choroid and retinal pigment epithelium (RPE) | 1 | detected in the optic nerve, optic nerve sheath, optic disc, all layers of the retina, and the retrobulbar connective tissues | 1 | diffusely distributed throughout the retina, including the photoreceptor outer segments, outer nuclear layer, inner nuclear layer, and ganglion cell layer | without any adverse effects | without causing any adverse effects | 
nerve growth factor |  |  |  |  |  |  |  |  |  |  |  |  |  |  |  |  | 6
